In PubChem BioAssay AID2060908 (Molecular Pharmacology Branch, DTP, NCI, 2025):

Tested on: 186277-243-T-J2-PDC complex spheroids, viability
Assay: Anticancer human tumor 186277-243-T-J2-PDC patient-derived colon adenocarcinoma cell line growth inhibition [RAS]
Details: for viability, T/C: stronger effect = lower value
Description: RAS pathway inhibitors in Combinations in Complex Spheroids
A high-throughput screen of multi-cell type tumor spheroids was designed to identify active combinations of RAS pathway inhibitors and targeted small molecules. Complex spheroids include a stromal component modeled by human endothelial cells (HUVEC) and fibroblasts modeled by human mesenchymal stem cells (MSCs). The concentration ranges selected for each drug and investigational agent were based upon clinically achievable concentrations if the clinical Cmax of the agent was known.
Compounds. The drugs and investigational agents: abemaciclib (NSC768073), cobimetinib (NSC768068), divarasib (GDC6063, NSC841802), docetaxel (NSC628503), GDC-1971 (RLY-1971, NSC841576), gemcitabine (NSC613327), inavolisib (NSC800729), ipatasertib (NSC767898), KB-0742 (NSC834161), MRTX-1133 (NSC836407), osimertinib (NSC779217), RMC-4630 (NSC839698), RMC-6236 (NSC851965), RMC-6291 (NSC852671), Ro-3306 (NSC812927), sapanisertib (NSC764658), SN-38 (NSC673596), staurosporine (NSC755774), SY5609 (NSC837396), and tovorafenib (DAY101, NSC766906), were obtained from the National Cancer Institute (NCI) Developmental Therapeutics Program Chemical Repository. The FDA-approved anticancer drug set is available from the NCI Developmental Therapeutics Program. […] The stock solutions were prepared in dimethyl sulfoxide (DMSO, Sigma-Aldrich, St. Louis, MO, cat. D2650) at 800-fold the tested concentration and stored at -70 degrees C prior to their use. All drugs and investigational agents were tested over a range starting from a high concentration at or near the clinical Cmax and decreasing in half-log increments. If the clinical Cmax for an agent had not been determined, the highest concentration tested was 10 microM.
Cell Culture. All cells were maintained in an incubator at 37 degrees C and 5% CO2 with 95% humidity. The PDC lines were cultured according to standard operating procedures established by the NCI PDMR. All PDCs were thawed and cultured in Matrigel-coated flasks prepared with a working solution of 1X Ham's F-12 nutrient mix, without supplementation (Invitrogen, Waltham, MA, cat. 11765054), 100 U/mL penicillin-streptomycin (Invitrogen, cat. 15140122), and 2.5% Matrigel (Corning Inc., Corning, NY, cat. 354248) for the first three passages. The 362531-283-R-J2-PDC and 782815-120-R-J1-PDC lines were cultured in 6C/Colon 1B media, which includes advanced DMEM/F-12 (Thermo Fisher Scientific, cat. 12634028), 10 mM HEPES (Thermo Fisher Scientific, cat. 15630080), 1X GlutaMAX supplement (Thermo Fisher Scientific, cat. 35050061), 0.1 mg/mL primocin (InvivoGen, San Diego, CA, cat. ant-pm-2), 10% defined fetal bovine serum, heat inactivated (HyClone Laboratories Inc., Logan, UT, cat. SH30070.03HI), 50% L-WRN conditioned media (ATCC, cat. CRL-3276), 1.25 mM N-Acetyl-L-cysteine (Sigma-Aldrich, cat. A9165), 10 mM nicotinamide (Sigma-Aldrich, cat. N0636), 1X B-27 supplement (Thermo Fisher Scientific, cat. 17504044), 1X N-2 supplement (Thermo Fisher Scientific, cat. 17502048), 50 ng/mL human EGF (Thermo Fisher Scientific, cat. PHG0311), and 10 microM Y-27632 dihydrochloride (Tocris Bioscience, cat. 1254). The K12877-001-R-J1-PDC line was cultured in 6I media, which includes all 6C/Colon 1B media plus 10 ng/mL human FGF-10 (PeproTech, cat. 100-26), 1 ng/mL human FGF-2 (PeproTech, cat. 100-18B), 1 µM prostaglandin E2 (Tocris Bioscience, cat. 2296), […] hydrocortisone (Sigma-Aldrich, cat. H4001), and […] bovine insulin (Sigma-Aldrich, cat. I6634). The K86415-001-R-J1-PDC line was cultured in 6D media, which includes all 6C/Colon 1B media components minus the L-WRN conditioned media. The 485176-168-R4-J1-PDC was cultured in PANC media, which includes all 6C/Colon 1B media plus 100 ng/mL human FGF-10 (PeproTech, cat. 100-26), 500 nM SB-431542 (Selleckchem, cat. S1067), and 10 nM gastrin (Tocris Bioscience, cat. 3006). […]

[1] = curve of first compound, second compound 0.0316 µM
[2] = curve of first compound, second compound 0.1 µM
[3] = curve of first compound, second compound 0.316 µM
[4] = curve of first compound, second compound 1 µM
[5] = second compound 0.0316 µM, first compound 0.0316 µM
[6] = second compound 0.0316 µM, first compound 0.1 µM
[7] = second compound 0.0316 µM, first compound 0.316 µM
[8] = second compound 0.0316 µM, first compound 1 µM
[9] = second compound 0.1 µM, first compound 0.0316 µM
[10] = second compound 0.1 µM, first compound 0.1 µM
[11] = second compound 0.1 µM, first compound 0.316 µM
[12] = second compound 0.1 µM, first compound 1 µM
[13] = second compound 0.316 µM, first compound 0.0316 µM
[14] = second compound 0.316 µM, first compound 0.1 µM
[15] = second compound 0.316 µM, first compound 0.316 µM
[16] = second compound 0.316 µM, first compound 1 µM
[17] = second compound 1 µM, first compound 0.0316 µM
[18] = second compound 1 µM, first compound 0.1 µM
[19] = second compound 1 µM, first compound 0.316 µM
[20] = second compound 1 µM, first compound 1 µM
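Also: spheroids exposed to compounds for 7 days before viability read.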

SMILES: C[C@@H](NC(=O)c1ncnc(N)c1Cl)c1ncc(C(=O)Nc2cc(C(F)(F)F)c(Cl)cn2)s1
- viability, T/C (compound 0.0316 µM): 99.8% [middle of 4 runs]
- viability, T/C (compound 0.1 µM): 93.7% [middle of 4 runs]
- viability, T/C (compound 0.316 µM): 102% [middle of 4 runs]
- viability, T/C (compound 1 µM): 91.9% [middle of 4 runs]
- viability, T/C (compound 3.16 µM): 104% [middle of 4 runs]
- viability, T/C (compound 10 µM): 79.8% [middle of 4 runs]
- IC50 (curve of compound): > 10000 nM

SMILES: CCC(CC)c1cc(NC2CCC(N)C2)n2nccc2n1 (stereo unspecified) + C#Cc1c(F)ccc2cc(O)cc(-c3ncc4c(N5CC6CCC(C5)N6)nc(OCC56CCCN5CC(F)C6)nc4c3F)c12
- IC50 [1]: 672 nM
- IC50 [2]: 564 nM
- IC50 [3]: < 31.6 nM
- IC50 [4]: < 31.6 nM
- IC50 (curve of first compound, second compound 3.16 µM): < 31.6 nM
- IC50 (curve of first compound, second compound 10 µM): < 31.6 nM
- viability, T/C [5]: 79.8%
- viability, T/C [6]: 77.9%
- viability, T/C [7]: 79.6%
- viability, T/C [8]: 34.8%
- viability, T/C (second compound 0.0316 µM, first compound 3.16 µM): 3.07%
- viability, T/C (second compound 0.0316 µM, first compound 10 µM): 0.17%
- viability, T/C [9]: 56.6%
- viability, T/C [10]: 77.6%
- viability, T/C [11]: 69%
- viability, T/C [12]: 32.4%
- viability, T/C (second compound 0.1 µM, first compound 3.16 µM): 2.77%
- viability, T/C (second compound 0.1 µM, first compound 10 µM): 0.13%
- viability, T/C [13]: 32.8%
- viability, T/C [14]: 40%
- viability, T/C [15]: 33.4%
- viability, T/C [16]: 17.3%
- viability, T/C (second compound 0.316 µM, first compound 3.16 µM): 2.52%
- viability, T/C (second compound 0.316 µM, first compound 10 µM): 0.1%
- viability, T/C [17]: 16.6%
- viability, T/C [18]: 21.3%
- viability, T/C [19]: 19.9%
- viability, T/C [20]: 11.3%
- viability, T/C (second compound 1 µM, first compound 3.16 µM): 2.86%
- viability, T/C (second compound 1 µM, first compound 10 µM): 0.14%
- viability, T/C (second compound 3.16 µM, first compound 0.0316 µM): 11.1%
- viability, T/C (second compound 3.16 µM, first compound 0.1 µM): 14%
- viability, T/C (second compound 3.16 µM, first compound 0.316 µM): 12.2%
- viability, T/C (second compound 3.16 µM, first compound 1 µM): 10.1%
- viability, T/C (second compound 3.16 µM, first compound 3.16 µM): 2.81%
- viability, T/C (second compound 3.16 µM, first compound 10 µM): 0.16%
- viability, T/C (second compound 10 µM, first compound 0.0316 µM): 9.8%
- viability, T/C (second compound 10 µM, first compound 0.1 µM): 9.61%
- viability, T/C (second compound 10 µM, first compound 0.316 µM): 8.97%
- viability, T/C (second compound 10 µM, first compound 1 µM): 6.36%
- viability, T/C (second compound 10 µM, first compound 3.16 µM): 2.12%
- viability, T/C (second compound 10 µM, first compound 10 µM): 0.21%

SMILES: Nc1ccn(C2OC(CO)C(O)C2(F)F)c(=O)n1 (stereo unspecified) + C=CC(=O)N1CCN(c2nc(OCC3CCCN3C)nc3c(F)c(-c4nc(N)cc(C)c4C(F)(F)F)c(Cl)cc23)C(C)C1
- IC50 (curve of first compound, second compound 0.00316 µM): 5.06 nM
- IC50 (curve of first compound, second compound 0.01 µM): 5.02 nM
- IC50 [1]: 4.55 nM
- IC50 [2]: 4.41 nM
- IC50 [3]: 4.45 nM
- IC50 [4]: < 3.16 nM
- viability, T/C (second compound 0.00316 µM, first compound 0.00316 µM): 73.3%
- viability, T/C (second compound 0.00316 µM, first compound 0.01 µM): 16.4%
- viability, T/C (second compound 0.00316 µM, first compound 0.0316 µM): 12.9%
- viability, T/C (second compound 0.00316 µM, first compound 0.1 µM): 10.3%
- viability, T/C (second compound 0.00316 µM, first compound 0.316 µM): 11.1%
- viability, T/C (second compound 0.00316 µM, first compound 1 µM): 11.5%
- viability, T/C (second compound 0.01 µM, first compound 0.00316 µM): 73.9%
- viability, T/C (second compound 0.01 µM, first compound 0.01 µM): 14.4%
- viability, T/C (second compound 0.01 µM, first compound 0.0316 µM): 10.9%
- viability, T/C (second compound 0.01 µM, first compound 0.1 µM): 10.2%
- viability, T/C (second compound 0.01 µM, first compound 0.316 µM): 9.07%
- viability, T/C (second compound 0.01 µM, first compound 1 µM): 11%
- viability, T/C (second compound 0.0316 µM, first compound 0.00316 µM): 65.2%
- viability, T/C (second compound 0.0316 µM, first compound 0.01 µM): 17.3%
- viability, T/C [5]: 13.5%
- viability, T/C [6]: 10.2%
- viability, T/C [7]: 10.7%
- viability, T/C [8]: 12.2%
- viability, T/C (second compound 0.1 µM, first compound 0.00316 µM): 64.1%
- viability, T/C (second compound 0.1 µM, first compound 0.01 µM): 15.2%
- viability, T/C [9]: 11.7%
- viability, T/C [10]: 11.3%
- viability, T/C [11]: 10.1%
- viability, T/C [12]: 11.8%
- viability, T/C (second compound 0.316 µM, first compound 0.00316 µM): 64.3%
- viability, T/C (second compound 0.316 µM, first compound 0.01 µM): 16%
- viability, T/C [13]: 13.1%
- viability, T/C [14]: 11.8%
- viability, T/C [15]: 11.8%
- viability, T/C [16]: 12.9%
- viability, T/C (second compound 1 µM, first compound 0.00316 µM): 45.3%
- viability, T/C (second compound 1 µM, first compound 0.01 µM): 18.9%
- viability, T/C [17]: 17.2%
- viability, T/C [18]: 14.1%
- viability, T/C [19]: 13.5%
- viability, T/C [20]: 14.8%
